Test results reported in article PMC7932537, “Quantitative profiling of protease specificity” (PLoS Computational Biology, 2021).

Assays:
MMP-9 [1] = experiment: Substrate phage display with NGS: relative probability (RP) of P3-P1' tetramer clusters; format: biochemical, human; conditions: MMP9; RP of the substrate's P3-P1' tetramer, substrate phage display with NGS;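 further: ratio of tetramer probability after protease selection to that in naive phage library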
MMP-9 [2] = target: MMP-9 (Homo sapiens, UniProt P14780); experiment: K(obs) of individual phage substrates (set of 1369); format: biochemical; conditions: MMP9; individual phage substrate of the set of 1369 peptides; dash in sequence marks cleavage position
MMP-2 = target: T1, MMP-2 (Homo sapiens, UniProt P08253); experiment: as above; format: biochemical; conditions: MMP2; individual phage substrate from the set of 1369 peptides; hyphen in the sequence marks the cleavage position
T1 sequence (P08253 110-660): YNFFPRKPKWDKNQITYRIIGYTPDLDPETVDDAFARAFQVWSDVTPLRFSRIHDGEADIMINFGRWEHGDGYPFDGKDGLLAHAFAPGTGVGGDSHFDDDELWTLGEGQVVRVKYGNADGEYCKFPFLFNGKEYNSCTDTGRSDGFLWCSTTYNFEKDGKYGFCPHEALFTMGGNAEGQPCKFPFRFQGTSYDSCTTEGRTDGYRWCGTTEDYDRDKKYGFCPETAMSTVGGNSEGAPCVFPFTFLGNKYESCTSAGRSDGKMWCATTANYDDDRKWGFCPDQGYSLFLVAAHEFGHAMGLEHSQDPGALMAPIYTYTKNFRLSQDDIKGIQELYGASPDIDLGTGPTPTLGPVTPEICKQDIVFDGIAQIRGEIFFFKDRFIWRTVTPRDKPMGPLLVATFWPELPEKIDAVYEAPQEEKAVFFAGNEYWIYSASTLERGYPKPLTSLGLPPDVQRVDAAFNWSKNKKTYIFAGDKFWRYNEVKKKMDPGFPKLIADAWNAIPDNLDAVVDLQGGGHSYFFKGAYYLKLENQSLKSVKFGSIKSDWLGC

Chain of MMP-9 (Homo sapiens, UniProt P14780) (P14780 94-707): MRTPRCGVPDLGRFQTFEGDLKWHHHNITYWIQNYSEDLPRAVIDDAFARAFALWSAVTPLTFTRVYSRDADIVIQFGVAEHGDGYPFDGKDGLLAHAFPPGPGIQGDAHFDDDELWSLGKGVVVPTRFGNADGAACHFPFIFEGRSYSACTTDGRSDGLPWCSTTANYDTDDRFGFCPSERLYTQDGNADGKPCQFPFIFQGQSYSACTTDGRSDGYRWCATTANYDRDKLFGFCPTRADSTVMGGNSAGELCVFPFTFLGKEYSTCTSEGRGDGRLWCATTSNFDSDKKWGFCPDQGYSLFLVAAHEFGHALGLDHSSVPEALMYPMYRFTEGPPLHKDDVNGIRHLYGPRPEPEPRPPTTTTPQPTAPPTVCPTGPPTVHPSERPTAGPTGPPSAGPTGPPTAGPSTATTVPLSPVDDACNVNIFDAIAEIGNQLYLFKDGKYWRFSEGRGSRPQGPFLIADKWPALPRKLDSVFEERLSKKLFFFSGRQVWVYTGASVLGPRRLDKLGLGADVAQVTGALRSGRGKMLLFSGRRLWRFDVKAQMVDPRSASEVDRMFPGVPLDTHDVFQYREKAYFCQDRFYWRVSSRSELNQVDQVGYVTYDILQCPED

Substance | relative probability (RP) (MMP-9 [1]) | Kobs (MMP-9 [2]) | Kobs (MMP-2)
TVPWS-VTASG | 31.0554 | 12792.1 M⁻¹ s⁻¹ | 1071.29 M⁻¹ s⁻¹
VGPAF-LTASG | 38.454 | 12792.1 M⁻¹ s⁻¹ | 12792.1 M⁻¹ s⁻¹
NSPMS-LTASG | 47.1282 | 12792.1 M⁻¹ s⁻¹ | 12792.1 M⁻¹ s⁻¹
GMVLG-LHTAS | 34.6877 | 12792.1 M⁻¹ s⁻¹ | 12792.1 M⁻¹ s⁻¹
HYVRA-HTASG | 18.814 | 4205.91 M⁻¹ s⁻¹ | 10866.7 M⁻¹ s⁻¹
IFPAN-HTASG | 10.2001 | 5090.5 M⁻¹ s⁻¹ | 12792.1 M⁻¹ s⁻¹
KAPAH-LTASG | 44.1453 | 12792.1 M⁻¹ s⁻¹ | 12792.1 M⁻¹ s⁻¹
GSPLP-FITAS | 46.6229 | 12792.1 M⁻¹ s⁻¹ | 12792.1 M⁻¹ s⁻¹
TVLGN-LTASG | 10.3813 | 690.17 M⁻¹ s⁻¹ | 12792.1 M⁻¹ s⁻¹
LKVMN-YTASG | 29.3662 | 12792.1 M⁻¹ s⁻¹ | 3637.04 M⁻¹ s⁻¹
ILLSP-LTASG | 4.611 | 1030.73 M⁻¹ s⁻¹ | 12792.1 M⁻¹ s⁻¹
SGPRF-LIGTA | 42.4535 | 6131.32 M⁻¹ s⁻¹ | 3964.21 M⁻¹ s⁻¹
SDVRF-LTASG | 26.3541 | 5889.62 M⁻¹ s⁻¹ | 9740.44 M⁻¹ s⁻¹
AMPKH-LTASG | 46.5072 | 12792.1 M⁻¹ s⁻¹ | 12792.1 M⁻¹ s⁻¹
SNPFK-YTASG | 32.6605 | 5461.43 M⁻¹ s⁻¹ | 0 M⁻¹ s⁻¹
VMPSG-FTASG | 36.6478 | 12792.1 M⁻¹ s⁻¹ | 8321.48 M⁻¹ s⁻¹
KSPTG-LTASG | 39.8897 | 8321.48 M⁻¹ s⁻¹ | 10866.7 M⁻¹ s⁻¹
TGPKL-ITASG | 25.2703 | 6396.07 M⁻¹ s⁻¹ | 1071.29 M⁻¹ s⁻¹
CAPTA-LTASG | 40.9775 | 10866.7 M⁻¹ s⁻¹ | 12792.1 M⁻¹ s⁻¹
NPPSH-LTASG | 43.8368 | 12792.1 M⁻¹ s⁻¹ | 12792.1 M⁻¹ s⁻¹
KYHAW-MTASG | 0.08727 | 27.918 M⁻¹ s⁻¹ | 7386.83 M⁻¹ s⁻¹
QPPHA-FTASG | 39.4048 | 12792.1 M⁻¹ s⁻¹ | 12792.1 M⁻¹ s⁻¹
SGPRN-LAVTA | 48.2698 | 12792.1 M⁻¹ s⁻¹ | 12792.1 M⁻¹ s⁻¹
GTPRN-IKTAS | 46.5688 | 12792.1 M⁻¹ s⁻¹ | 12792.1 M⁻¹ s⁻¹
SGPKQ-LRVTA | 43.3387 | 12792.1 M⁻¹ s⁻¹ | 12792.1 M⁻¹ s⁻¹
TLIRY-LTASG | 33.2843 | 12792.1 M⁻¹ s⁻¹ | 10866.7 M⁻¹ s⁻¹
SGVKW-LMSTA | 39.0108 | 12792.1 M⁻¹ s⁻¹ | 4335.13 M⁻¹ s⁻¹

Substance | relative probability (RP) (MMP-9 [1]) | Kobs (MMP-9 [2]) | Kobs (MMP-2)
RLPYP-LTASG | 48.6636 | 12792.1 M⁻¹ s⁻¹ | 12792.1 M⁻¹ s⁻¹
RHPSH-FTASG | 26.7767 | 6688.74 M⁻¹ s⁻¹ | 12792.1 M⁻¹ s⁻¹
SGVWN-LMSTA | 38.922 | 12792.1 M⁻¹ s⁻¹ | 3438.54 M⁻¹ s⁻¹
GMPRS-YITAS | 44.546 | 12792.1 M⁻¹ s⁻¹ | 12792.1 M⁻¹ s⁻¹
SGVAG-LYSTA | 21.512 | 7015.91 M⁻¹ s⁻¹ | 12792.1 M⁻¹ s⁻¹
GMPRA-YRTAS | 46.2238 | 12792.1 M⁻¹ s⁻¹ | 12792.1 M⁻¹ s⁻¹
PTWRG-LTASG | 37.3667 | 12792.1 M⁻¹ s⁻¹ | 5269.78 M⁻¹ s⁻¹
VKPSG-VTASG | 31.8733 | 12792.1 M⁻¹ s⁻¹ | 12792.1 M⁻¹ s⁻¹
SGPKG-MRMTA | 48.8441 | 12792.1 M⁻¹ s⁻¹ | 9740.44 M⁻¹ s⁻¹
GRPVN-LTTAS | 46.0636 | 12792.1 M⁻¹ s⁻¹ | 12792.1 M⁻¹ s⁻¹
RMWRA-FTASG | 17.7749 | 4922.1 M⁻¹ s⁻¹ | 4205.91 M⁻¹ s⁻¹
SGPRQ-LSTTA | 43.5363 | 12792.1 M⁻¹ s⁻¹ | 12792.1 M⁻¹ s⁻¹
RVVAN-LTASG | 32.1971 | 4922.1 M⁻¹ s⁻¹ | 12792.1 M⁻¹ s⁻¹
KFPAS-LTASG | 46.2982 | 12792.1 M⁻¹ s⁻¹ | 12792.1 M⁻¹ s⁻¹
PSLGQ-LTASG | 2.507 | 56.119 M⁻¹ s⁻¹ | 12792.1 M⁻¹ s⁻¹
GLARA-LKTAS | 38.5396 | 4335.13 M⁻¹ s⁻¹ | 12792.1 M⁻¹ s⁻¹
KGPSG-LTASG | 47.388 | 10866.7 M⁻¹ s⁻¹ | 12792.1 M⁻¹ s⁻¹
RRPVA-YTASG | 47.2844 | 12792.1 M⁻¹ s⁻¹ | 12792.1 M⁻¹ s⁻¹
TSPGL-LTASG | 19.6268 | 690.17 M⁻¹ s⁻¹ | 12792.1 M⁻¹ s⁻¹
MSPRK-FTASG | 2.647 | 12792.1 M⁻¹ s⁻¹ | 12792.1 M⁻¹ s⁻¹
KMPST-LTASG | 36.3405 | 6396.07 M⁻¹ s⁻¹ | 12792.1 M⁻¹ s⁻¹
RDMSY-LTASG | 0.7522 | 0 M⁻¹ s⁻¹ | 4335.13 M⁻¹ s⁻¹
SGVKG-MYSTA | 17.5008 | 7815.03 M⁻¹ s⁻¹ | 4335.13 M⁻¹ s⁻¹
RTPKG-LTASG | 48.4124 | 12792.1 M⁻¹ s⁻¹ | 12792.1 M⁻¹ s⁻¹
YHPIS-LTASG | 42.7806 | 12792.1 M⁻¹ s⁻¹ | 12792.1 M⁻¹ s⁻¹
FLPRM-LTASG | 42.2884 | 12792.1 M⁻¹ s⁻¹ | 12792.1 M⁻¹ s⁻¹
WYPSK-LTASG | 38.9571 | 10866.7 M⁻¹ s⁻¹ | 12792.1 M⁻¹ s⁻¹
